Values joined by “and” are separate entries in the source; they are usually repeats but may differ in a detail not shown here. Identical values can stand only once.
Tests used:
Format in all cases: functional
[1] = system: T47D; assay: Growth inhibition of human T47D cells assessed as growth percentage at 10 uM incubated for 48 hrs by sulforhodamine B assay relative to control; details: read-out: Activity
[2] = system: DU-145; assay: Growth inhibition of human DU-145 cells assessed as growth percentage at 10 uM incubated for 48 hrs by sulforhodamine B assay relative to control; details: read-out: Activity
[3] = system: SK-OV-3; assay: Growth inhibition of human SK-OV-3 cells assessed as growth percentage at 10 uM incubated for 48 hrs by sulforhodamine B assay relative to control; details: read-out: Activity
[4] = system: HCT-15; assay: Growth inhibition of human HCT-15 cells assessed as growth percentage at 10 uM incubated for 48 hrs by sulforhodamine B assay relative to control; details: read-out: Activity
[5] = system: CCRF-CEM; assay: Growth inhibition of human CCRF-CEM cells assessed as growth percentage at 10 uM incubated for 48 hrs by sulforhodamine B assay relative to control; details: read-out: Activity
[6] = system: MDA-MB-468; assay: Growth inhibition of human MDA-MB-468 cells incubated for 48 hrs by sulforhodamine B assay
[7] = system: T47D; assay: Growth inhibition of human T47D cells incubated for 48 hrs by sulforhodamine B assay
[8] = system: SK-OV-3; assay: Growth inhibition of human SK-OV-3 cells incubated for 48 hrs by sulforhodamine B assay; details: Homo sapiens
[9] = system: OVCAR-4; assay: Growth inhibition of human OVCAR-4 cells incubated for 48 hrs by sulforhodamine B assay
[10] = system: IGROV-1; assay: Growth inhibition of human IGROV-1 cells incubated for 48 hrs by sulforhodamine B assay
[11] = system: SK-MEL-5; assay: Growth inhibition of human SK-MEL-5 cells incubated for 48 hrs by sulforhodamine B assay; details: Homo sapiens
[12] = system: SK-MEL-28; assay: Growth inhibition of human SK-MEL-28 cells incubated for 48 hrs by sulforhodamine B assay
[13] = system: U-251; assay: Growth inhibition of human U-251 cells incubated for 48 hrs by sulforhodamine B assay; details: for CC50: read-out: LC50 (the source's name)
[14] = system: KM12; assay: Growth inhibition of human KM12 cells incubated for 48 hrs by sulforhodamine B assay
[15] = system: HCT-116; assay: Growth inhibition of human HCT-116 cells incubated for 48 hrs by sulforhodamine B assay; details: for CC50: read-out: LC50 (the source's name)
[16] = system: COLO 205; assay: Growth inhibition of human COLO 205 cells incubated for 48 hrs by sulforhodamine B assay
[17] = system: MCF7; assay: Antiproliferative activity against human MCF7 cells assessed as cell growth inhibition measured after 72 hrs by MTT assay
[18] = system: MCF7; assay: Antiproliferative activity against human MCF7 cells assessed as cell growth inhibition at 10 uM measured after 72 hrs by MTT assay relative to control; details: read-out: GI
[19] = system: MDA-MB-468; assay: Growth inhibition of human MDA-MB-468 cells assessed as growth percent at 0.1 uM incubated for 48 hrs by sulforhodamine B assay relative to control; details: read-out: Activity
[20] = system: T47D; assay: Growth inhibition of human T47D cells assessed as growth percentage at 100 uM incubated for 48 hrs by sulforhodamine B assay relative to control; details: read-out: Activity
[21] = system: Hs-578T; assay: Growth inhibition of human Hs-578T cells assessed as growth percentage at 100 uM incubated for 48 hrs by sulforhodamine B assay relative to control; details: read-out: Activity
[22] = system: MDA-MB-231; assay: Growth inhibition of human MDA-MB-231/ATCC cells assessed as growth percentage at 100 uM incubated for 48 hrs by sulforhodamine B assay relative to control; details: read-out: Activity
[23] = system: RXF 393; assay: Growth inhibition of human RXF 393 cells assessed as growth percentage at 100 uM incubated for 48 hrs by sulforhodamine B assay relative to control; details: read-out: Activity
[24] = system: A498; assay: Growth inhibition of human A498 cells assessed as growth percentage at 100 uM incubated for 48 hrs by sulforhodamine B assay relative to control; details: read-out: Activity
[25] = system: LOX IMVI; assay: Growth inhibition of human LOX IMVI cells assessed as growth percentage at 100 uM incubated for 48 hrs by sulforhodamine B assay relative to control; details: read-out: Activity
[26] = system: HT-29; assay: Growth inhibition of human HT-29 cells assessed as growth percentage at 100 uM incubated for 48 hrs by sulforhodamine B assay relative to control; details: read-out: Activity
[27] = system: DU-145; assay: Growth inhibition of human DU-145 cells assessed as growth percentage at 1 uM incubated for 48 hrs by sulforhodamine B assay relative to control; details: read-out: Activity
[28] = system: OVCAR-3; assay: Growth inhibition of human OVCAR-3 cells assessed as growth percentage at 1 uM incubated for 48 hrs by sulforhodamine B assay relative to control; details: read-out: Activity
[29] = system: HCT-116; assay: Growth inhibition of human HCT-116 cells assessed as growth percentage at 1 uM incubated for 48 hrs by sulforhodamine B assay relative to control; details: read-out: Activity
[30] = system: NCI-H226; assay: Growth inhibition of human NCI-H226 cells assessed as growth percentage at 1 uM incubated for 48 hrs by sulforhodamine B assay relative to control; details: read-out: Activity
[31] = system: CCRF-CEM; assay: Growth inhibition of human CCRF-CEM cells assessed as growth percentage at 1 uM incubated for 48 hrs by sulforhodamine B assay relative to control; details: read-out: Activity
[32] = system: TK-10; assay: Growth inhibition of human TK-10 cells assessed as growth percentage at 0.1 uM incubated for 48 hrs by sulforhodamine B assay relative to control; details: read-out: Activity
[33] = system: IGROV-1; assay: Growth inhibition of human IGROV-1 assessed as growth percent at 0.1 uM incubated for 48 hrs by sulforhodamine B assay relative to control; details: read-out: Activity
[34] = system: UACC-257; assay: Growth inhibition of human UACC-257 cells assessed as growth percentage at 0.1 uM incubated for 48 hrs by sulforhodamine B assay relative to control; details: read-out: Activity
[35] = system: Malme-3M; assay: Growth inhibition of human Malme-3M cells assessed as growth percentage at 0.1 uM incubated for 48 hrs by sulforhodamine B assay relative to control; details: read-out: Activity
[36] = system: SNB-19; assay: Growth inhibition of human SNB-19 cells assessed as growth percentage at 0.1 uM incubated for 48 hrs by sulforhodamine B assay relative to control; details: read-out: Activity
[37] = system: SW-620; assay: Growth inhibition of human SW-620 cells assessed as growth percentage at 0.1 uM incubated for 48 hrs by sulforhodamine B assay relative to control; details: read-out: Activity
[38] = read-out: LC50 (the source's name)

## CCCCCCCC(=O)Nc1nc2[nH]c(CN3CCN(Cc4cccc(F)c4)CC3)c(CN3CCN(Cc4cccc(F)c4)CC3)c2c(=O)[nH]1
[1]
  growth at 10 µM: -84.2%
[2]
  growth at 10 µM: -74.7%
[3]
  growth at 10 µM: -61%
[4]
  growth at 10 µM: -70.8%
[5]
  growth at 10 µM: -25.8%
[6]; 48 h
  GI50: 0.48 µM
[6]; Homo sapiens, MDA-MB-468
  LC50 (concentration killing 50% of cells): 5.31 µM
  TGI: 1.84 µM
[6]; Homo sapiens, MDA-MB-468, 48 h
  GI50: 0.477 µM
[7]; 48 h
  GI50: 0.16 µM and 1.6 µM
[7]; Homo sapiens, T47D
  TGI: 3.47 µM
[7]; Homo sapiens, T47D, read-out: LC50 (the source's name)
  CC50: 7.53 µM
[8]; SK-OV-3
  GI50: 1.9 µM
[8]; SK-OV-3, 48 h
  LC50: 5.86 µM
  TGI: 3.33 µM
[9]
  GI50: 1.21 µM
  TGI: 2.54 µM
[9]; [38]
  CC50: 5.31 µM
[10]
  GI50: 1.43 µM
  TGI: 3.2 µM
[10]; [38]
  CC50: 7.14 µM
[11]; SK-MEL-5
  GI50: 1.57 µM
  TGI: 3.03 µM
[11]; SK-MEL-5, 48 h, read-out: LC50 (the source's name)
  CC50: 5.87 µM
[12]
  GI50: 1.79 µM
  TGI: 3.62 µM
[13]; 48 h
  GI50: 0.17 µM
  TGI: 0.33 µM
  CC50: 0.61 µM
[13]; Homo sapiens, U-251, 48 h
  GI50: 0.172 µM
  TGI: 0.325 µM
  CC50: 0.614 µM
[14]; 48 h
  GI50: 0.72 µM
[14]; Homo sapiens, KM12
  TGI: 2.38 µM
[14]; Homo sapiens, KM12, 48 h
  GI50: 0.719 µM
[15]; 48 h
  GI50: 0.17 µM
  TGI: 0.32 µM
  CC50: 0.6 µM
[15]; Homo sapiens, HCT-116, 48 h
  GI50: 0.171 µM
  TGI: 0.321 µM
  CC50: 0.601 µM
[16]
  GI50: 1.4 µM
  TGI: 2.82 µM
[16]; [38]
  CC50: 5.68 µM
[17]
  GI50: 2.15 µM
[18]
  inhibition of growth at 10 µM: 94.8%
[19]
  growth at 0.1 µM: 95%
[20]
  growth at 100 µM: -68%
[21]
  growth at 100 µM: -40%
[22]
  growth at 100 µM: -66%
[23]
  growth at 100 µM: -95%
[24]
  growth at 100 µM: -98%
[25]
  growth at 100 µM: -75%
[26]
  growth at 100 µM: -68%
[27]
  growth at 1 µM: 56%
[28]
  growth at 1 µM: 44%
[29]
  growth at 1 µM: -91%
[30]
  growth at 1 µM: 91%
[31]
  growth at 1 µM: -17%
[32]
  growth at 0.1 µM: 96%
[33]
  growth at 0.1 µM: 95%
[34]
  growth at 0.1 µM: 94%
[35]
  growth at 0.1 µM: 96%
[36]
  growth at 0.1 µM: 98%
[37]
  growth at 0.1 µM: 97%

Source: ChEMBL document CHEMBL4673219, “Novel 5,6-disubstituted pyrrolo[2,3-d]pyrimidine derivatives as broad spectrum antiproliferative agents: Synthesis, cell based assays, kinase profile and molecular docking study” (Bioorg Med Chem, 2018)
